Entries after “also recorded” stand apart in the source; their conditions may differ.
Tests used:
EAC solid tumor = experiment: Histopathological examination of tumor sections (H and E); format: in vivo, mice; conditions: for tumor section histopathology (necrosis): EAC bearing mouse, H and E × 200, Figure 3; for tumor cell death (histopathology): EAC solid tumor, compared with other molecules
Protocol: Results of the treated group and that of the positive control group are illustrated in (Figure 3 and Figure 4). […] At the same time, the count of mitotic cells was less in the studied analogs 6a, 6b, 6c and 6d as measured up to that of the positive control group.
Each tumor or liver sample for each mouse was separated and kept in 10% formalin solution and dehydrated in a graded alcohol series. Each specimen was treated with xylene and then inserted in paraffin blocks. The specimen was cut into sections, the thickness of each section is five-micron, hematoxylin, and eosin (H and E) were added for staining. The stained liver specimen was used to assess the degree of degradation and necrosis using a reported scaling system; the scaling system use numbers from 0 to 3 to reflect necrosis severity. Starting from 0, which indicates no necrosis and moves to mild, moderate, and severe necrosis indicated by 1, 2, and 3, respectively. Mild and moderate stages are defined as focal and multifocal necrosis or degradation of hepatocytes, respectively, while severe is characterized by local immense, spread out necrosis or damaged liver cells. Tumor specimen stained with H and E were used to evaluate the severity and percentage of necrosis by the same previously mentioned scaling system.
H and E-stained slides of tumor specimens were used also used to calculate the H score as well as the mitosis counting and apoptotic tumor cell counting, ten arbitrarily chosen microscopic fields were used for each mitosis and apoptotic tumor cell counting, this was considered as examining at least 1000 tumor cells. High magnification (400×) was used for microscopic examination.

Swiss albino mice = experiment: Acute / short-term toxicity study, single subcutaneous dose; format: in vivo; conditions: for No. of Death: 7 mice; for No. of Death / % Mortality: observed 24 h
Protocol: To confirm the safety of indoloquinoline compounds, acute and short-term toxicity studies were done. Forty-two Swiss albino mice were divided into six groups of seven mice each. The first five groups were subcutaneously injected in single graded doses. The first five groups were given a single dose of graded doses (400, 800, 1200, 1600, and 2000 mg/kg body weight) of indoloquinoline analog containing 11-substituted N-methyl piperazinyl side-chain 6d by the subcutaneous route, while the last group received 0.2 mL of (water: DMSO, 7:3) by the same route. The animals were then observed for 24 h for toxicity signs and death. The LD50 of 6d was calculated using the arithmetic methods of Karber as modified by Aliu and Nwude. The mortality rates and calculated LD50 are presented in (Table 3).

## 5(5-Methyl-5H-indolo[2,3-b] quinolin-11-ylamino) Pyrimidine-2,4(1H,3H)-dione [Compound 6c]
EAC solid tumor
  tumor section histopathology (necrosis): massive area of coagulative necrosis (Ne) with viable tumor cells

## Cn1c2nc3ccccc3c-2c(Nc2ccc(Br)cc2F)c2ccccc21 [Compound 6a, N-(4-Bromo-2-fluorophenyl)-5-methyl-5H-indolo[2,3-b] Quinolin-11-amine]
EAC solid tumor; EAC bearing mice, H and E
  antimitotic effect (count of mitotic cells): greatest antimitotic effect
EAC solid tumor
  tumor section histopathology (necrosis): massive, coagulated necrosis (Ne) with minimal residual malignant cells
  tumor cell death (histopathology): supremely cell death percentage and apoptosis

## 5-Methyl-N-(4-methylpiperazin-1-yl)-5H-indolo[2,3-b] Quinolin-11-amine [Compound 6d]
Swiss albino mice; 400 mg/kg SC single dose
  No. of Death: 0
  % Mortality: 0%
Swiss albino mice; 800 mg/kg SC single dose
  No. of Death: 2
  % Mortality: 28.5%
Swiss albino mice; 1200 mg/kg SC single dose
  No. of Death: 4
  % Mortality: 57.1%
Swiss albino mice; 1600 mg/kg SC single dose
  No. of Death: 6
  % Mortality: 85.7%
Swiss albino mice; 2000 mg/kg SC single dose
  No. of Death: 7
  % Mortality: 100%
Swiss albino mice; subcutaneous, mice, arithmetic method of Karber
  LD50: 1000 mg/kg
EAC solid tumor
  tumor section histopathology (necrosis): massive geographic coagulative necrosis (Ne) surrounded by viable tumor cells

## Cn1c2nc3ccccc3c-2c(NCCc2c[nH]c3ccccc23)c2ccccc21 [Compound 6b, N-(2-(1H-Indol-3-yl)ethyl)-5-methyl-5H-indolo[2,3-b] Quinolin-11-amine]
EAC solid tumor
  tumor section histopathology (necrosis): extensive necrosis (Ne) with minimal viable malignant cells
  tumor cell death (histopathology): supremely cell death percentage and apoptosis; also recorded: highest effect in tumor cell death without harming liver cells

Reference: publication PMC7867085, “In Vitro and In Vivo Antitumor Activity of Indolo[2,3-b] Quinolines, Natural Product Analogs from Neocryptolepine Alkaloid” (Molecules, 2021)
